Read-outs that look alike come from different tables or passages of the source.
What was measured:
[1] = cited from earlier work
in vivo = conditions: rat, po
Excerpt: (§1) A therapeutic index is an indication of the therapeutic usefulness of a compound, and such an index may be defined in various ways. One type of therapeutic index commonly used is the ratio LD50/ED50, wherein LD50 is the dose that causes a 50 percent lethality, and ED50 is the dose that causes a 50 percent reduction of tumour size. Another type of therapeutic index, useful in evaluation of increasing survival time, is the ratio between maximum and minimum effective dose. Both these types of therapeutic indexes are used and given in the experimental results below.
(§2) The manner of administration of the compounds is by the oral (p. o.) route in each case.
(§3) Experimental animals: Female Sprague Dawley rats
(§4) Tumour implants: Tumour pieces with 2-3 mm diameter, implanted subcutaneously
(§5) Therapy: The compound is administered p. o. once on the day after the implantation
(§6) Evaluation: Weight of tumour is determined in test animals and compared with those of control animals. For each compound the LD50 and ED50 dose (as defined above) are determined. The therapeutic index, T. I., (LD50/ED50) is calculated.

[2] = test system: Walker carcinosarcoma 256; test: Walker carcinosarcoma 256 tumour growth inhibition (single p.o. dose); assay type: in vivo, Female Sprague Dawley rats; conditions: for ED50: Rattus norvegicus, dose that causes a 50 percent reduction of tumour size, p.o. once, read-out: ED50
Excerpt: as §1, §2, §3, §4, §5
Termination: The animals are killed on the 9th day after implantation
as §6

Lymphatic leukemia L1210 = Lymphatic leukemia L1210 survival test (survival time increase, long term survival, cure potential); assay type: in vivo, Female BDF1 mice; conditions: for minimal effective dose: Mus musculus, L1210, po; for minimal effective dose / Maximum effective dose (survival time increase) / Dose or dose range for cure: p.o. once; for T.I.s (long term survival; max.effect.dose/min.effect.dose): long term survival T·100/To >20%; for T.I.s = max.effect.dose/min.effect.dose: survival time increase, t·100/c ≥125%; for Dose or dose range for cure: ≥90% long term survivors on day 60
Procedure: The experimental design and interpretation of the results are in accordance with the standards set by the CCNSC (see reference (16)) and by the DR&D (see reference (17)).
Experimental animals: Female BDF1 mice
Tumour implants: 10^5 tumour cells implanted intraperitoneally (i. p.)
Therapy: The compounds were administered p. o. once on the day following the implantation.
Termination: The animals were killed on the 60th day after the implantation. Living animals on the 60th day are termed long term survivors.
(a) Evaluation of therapeutic dose range for survival time increase: Survival times at various dose levels are determined, and the survival time of the test animals (t) is expressed as the percentage of that of the control animals (c):
The maximum effective dose and the minimum effective dose required to achieve t·100/c≥125% are determined, and a therapeutic index as defined below is calculated:
T. I.s =max.effect.dose/min.effect.dose.
(b) Evaluation of therapeutic dose range for long term survival: Long time survival is determined at various dose levels and is expressed as surviving test animals on day 60 (T) as the percentage of that of the total number of test animals (To):
The maximum effective dose and the minimum effective dose to achieve long term survival T·100/To >20% are determined and a therapeutic index, T. I.1 s is calculated:
T. I.1s =max.effect.dose/min.effect.dose.
(c) Evaluation of cure potential: The normal survival time for test animals receiving no therapeutic treatment is 9-11 days. Surviving test animals on the 60th day after implantation showing no sign of tumour presence are regarded as cured animals. Long term survival is determined as under (b) above, and the effective dose or dose range to achieve a long term survival T·100/To ≥90% is determined as an evaluation of the cure potential.

[3] = therapeutic index LD50/ED50, p.o.
[4] = 1440 h, >20% long term survivors on day 60, read-out: Minimum effective dose (long term survival)
[5] = median survival time percent of control ≥ 125%, read-out: Minimum effective dose (survival time increase)
[6] = median survival time percent of control ≥ 125%

Row | Compound | other types of toxicities ([1]; references (6, 7)) | bone marrow toxicity ([1]; under clinical evaluation, reference (5)) | LD50 (in vivo) | ED50 ([2]; po) | T.I. LD50/ED50 [2, 3] | minimal effective dose (Lymphatic leukemia L1210; [4]) | minimal effective dose (Lymphatic leukemia L1210; [5]) | T.I.s (long term survival; max.effect.dose/min.effect.dose) (Lymphatic leukemia L1210) | Maximum effective dose (survival time increase) (Lymphatic leukemia L1210; [6]) | T.I.s = max.effect.dose/min.effect.dose (Lymphatic leukemia L1210) | Dose or dose range for cure (Lymphatic leukemia L1210) | T.I. LD50/ED50 ([2]; rat, in vivo, po)
1 | O=NN(CCCl)C(=O)N[C@H]1C(O)O[C@H](CO)[C@@H](O)[C@@H]1O (stereo partly drawn) [Chlorozotocin, 2-/3-(2-chloroethyl)-3-nitrosoureido/-D-glucopyranose] | still evident, e.g. liver and lung toxicity | decreased bone marrow toxicity |  |  |  |  |  |  |  |  |  | 
2 | CN(C1CCCCC1)S(=O)(=O)CCNC(=O)N(CCCl)N=O [1:28, 1-(2-chloroethyl)-3-(2-/N-cyclohexyl-N-methylaminosulfonyl/ethyl)-1-nitrosourea] |  |  | > 250 mg/kg | 2.5 mg/kg | > 100 | 125 mg/kg | 31 mg/kg | 2 | 250 mg/kg | 8 | 125 mg/kg | 
3 | CN(CCO)S(=O)(=O)CCNC(=O)N(CCCl)N=O [1:15, 1-(2-chloroethyl)-3-(2-/N-2-hydroxyethyl-N-methyl-aminosulfonyl/ethyl)-1-nitrosourea] |  |  | 90 mg/kg | 0.6 mg/kg |  | 31 mg/kg | 16 mg/kg | 4 | 125 mg/kg | 8 | 63 mg/kg | 150
4 | CNS(=O)(=O)CCNC(=O)N(CCCl)N=O [1:5, 1-(2-chloroethyl)-3-(2-/methylaminosulfonyl/ethyl)-1-nitrosourea] |  |  | 40 mg/kg | 0.25 mg/kg | 160 |  | 8 mg/kg |  | 63 mg/kg | 8 | 31 mg/kg | 
5 | O=NN(CCCl)C(=O)NCCS(=O)(=O)NCCO [1:14, 1-(2-chloroethyl)-3-(2-/2-hydroxyethylaminosulfonyl/ethyl)-1-nitrosourea] |  |  | 90 mg/kg | 0.6 mg/kg | 150 | 31 mg/kg | 16 mg/kg | 4 | 125 mg/kg | 8 | 63 mg/kg | 
6 | O=NN(CCCl)C(=O)NCCCl [BCNU, 1,2-bis-(2-chloroethyl)-nitrosourea, reference compound] |  |  | 50 mg/kg | 1 mg/kg | 50 | 63 mg/kg | 16 mg/kg | 1 | 63 mg/kg | 4 | none | 
7 | CCCN(CCC)S(=O)(=O)CCNC(=O)N(CCCl)N=O [1:6, 1-(2-chloroethyl)-3-(2-/dipropylaminosulfonyl/ethyl)-1-nitrosourea] |  |  | 250 mg/kg | 2 mg/kg | 125 |  | 31 mg/kg |  | 250 mg/kg | 8 | 125 mg/kg | 
8 | NS(=O)(=O)CCNC(=O)N(CCCl)N=O [1:3, 3-(2-/aminosulfonyl/ethyl)-1-(2-chloroethyl)-1-nitrosourea] |  |  | 40 mg/kg | 0.2 mg/kg | 200 | 16 mg/kg |  | 2 |  |  |  | 
9 | CCN(CC)S(=O)(=O)CCNC(=O)N(CCCl)N=O [1:2, 1-(2-chloroethyl)-3-(2-/diethylaminosulfonyl/ethyl)-1-nitrosourea] |  |  | 60 mg/kg | 0.4 mg/kg | 150 | 63 mg/kg | 16 mg/kg | 2 | 125 mg/kg | 8 |  | 
10 | CN(C)S(=O)(=O)CCNC(=O)N(CCCl)N=O [1:1, 1-(2-chloroethyl)-3-/2-(dimethylaminosulfonyl)ethyl/-1-nitrosourea] |  |  | 50 mg/kg | 0.25 mg/kg | 200 | 31 mg/kg | 8 mg/kg | 2 | 63 mg/kg | 8 | 31 to 63 mg/kg | 

Source: patent US4613695A, “N-nitroso compounds and compositions containing such compounds” (Aktiebolaget Leo, priority 1982, dated 1986)
